Data taken from patent publication US20250295653A1, “Use Of Glycine Transporter- 1 Antagonists As Vascular Dementia And/Or Stroke Prophylactic/Treatment Agents” (Recherches Neuro-Hippocampe Inc., priority 2022, published 2025).
“Also recorded” adds a separate entry of the source.

Tests used:
NMDAR [1] = target: T1, NMDAR (Mus musculus, UniProt P35438); assay: Whole-cell voltage-clamp recordings of evoked NMDAR-EPSCs in CA1 pyramidal cells of acute hippocampal slices; type: cell-based; settings: for effect of a low dose after priming of NMDARs with high doses of glycine or D-serine: subsequent application of a low dose
NMDAR [2] = assay: as above; type: cell-based, mouse; settings: 1 mM glycine, acute slices, cells infected with AAV-GluN1-A714L
[3] = system: NMDAR (GluN1-WT or GluN1-A714L with GluN2A) in HEK293 cells; settings: 1 mM glycine
[4] = 175 mg, clinical trials; cited from earlier work
NMDAR [5] = target: T1, NMDAR; assay: NMDAR-EPSC trains in acute slices during the oxygen-glucose deprivation (OGD) paradigm; type: cell-based; settings: NMDAR-EPSC trains (20 Hz) recorded with GO
Excerpt: Whole-cell electrophysiology on hippocampal slices and HEK293 cells. Whole-cell voltage-clamp recordings were obtained from visually identified CA1 pyramidal cells from acute hippocampal brain slices (300 μm thick) in oxygenated artificial cerebrospinal fluid (ACSF) as previously described (Martina et al., 2004, 2005). The cells were voltage-clamped at −65 mV using cesium methane sulfonate based internal solution and postsynaptic currents were evoked by electrical stimulation of the Schaffer collaterals with a bipolar stimulating electrode positioned in the Stratum radiatum. The intensity of the stimulation was adjusted to obtain evoked excitatory postsynaptic currents (EPSCs). […] To isolate the NMDAR-EPSC, a low concentration of MgCl2 (0.13 mM) ACSF was used wherein the CaCl2 concentration was increased to 3.5 mM to maintain cation balance.
Oxygen-glucose deprivation paradigm. To mimic ischemia, the acute slices were challenged by an oxygen-glucose deprivation paradigm (OGD) modified from Rossi et al. (Rossi et al., 2000). In this paradigm, external glucose was replaced with 7 mM sucrose, and the external solution was saturated with 95% N2/5% CO2 instead of 95% O2/5% CO2. Iodoacetate and cyanide were also added to the OGD external solution to block glycolysis and oxidative phosphorylation.
Purification of glycine oxidase. […]

N[C@H](CO)C(=O)O [D-serine]
effect on evoked NMDAR-EPSC amplitude (NMDAR [1]; 10 μM D-serine, WT and SR−/− mice): potentiated
effects of increasing concentrations on NMDAR-EPSC amplitudes (NMDAR [1]; D-serine, WT mice): dose-dependent
dose required to induce a decrease in NMDAR-EPSC amplitude (NMDAR [1]; SR−/− mice): 2 mM
dose required to induce a decrease in NMDAR-EPSC amplitude (NMDAR [1]; WT mice): 1 mM
dose-response curve of NMDAR-EPSC amplitudes relative to that of glycine (NMDAR [1]; WT mice): left-shifted
effect of a low dose after priming of NMDARs with high doses of glycine or D-serine (NMDAR [1]): induced GINI

O=C(N/N=C/c1ccc(O)c(O)c1)c1cc2ccccc2cc1O [dynasore]
effect on the decrease in NMDAR-EPSC amplitude by 1 mM glycine (NMDAR [1]; 100 μM dynasore): abolished
effect on the decrease in NMDAR-EPSC amplitude evoked by 1 mM D-serine (NMDAR [1]; dynasore): abolished
effect on the decrease of NMDAR-EPSC amplitude induced by 250 μM glycine (NMDAR [1]; dynasore, GlyT1+/− mice): abolished

O=C(O)CN(CC(=O)O)c1ccccc1OCCOc1ccccc1N(CC(=O)O)CC(=O)O [BAPTA]
effect on the decrease in NMDAR-EPSC amplitude induced by 1 mM exogenous glycine (NMDAR [1]; BAPTA 10 mM in the recording electrode): significant attenuation

NCC(=O)O [glycine]
effect on NMDAR-EPSC amplitude (NMDAR [1]; 250 μM glycine, GlyT1+/− mice): significantly inhibited
effect on NMDAR-EPSC amplitude (NMDAR [1]; 250 μM glycine, WT mice): potentiated
effect on NMDAR-EPSC amplitude (NMDAR [1]; 1 mM glycine with low Ca2+ (1 mM)): increase in NMDAR-EPSC amplitude
difference in NMDAR-EPSC amplitude between WT and GlyT1+/− mice (NMDAR [1]; bath application of 10 μM or 1 mM glycine): no significant effect
effect on NMDAR-EPSC amplitude (NMDAR [1]; bath application of low glycine concentrations (below / ≤250 μM), WT slices): increased; also recorded: potentiated in a dose-dependent fashion
effect on NMDAR-EPSC amplitude (NMDAR [1]; high glycine concentration (1 mM), normal Ca2+ (3.5 mM), WT slices): significantly reduced; also recorded: significant decrease
effect of a low dose after priming of NMDARs with high doses of glycine or D-serine (NMDAR [1]): induced GINI
effect on NMDAR-EPSC amplitudes (NMDAR [2]): did not decrease
effect on NMDAR amplitude ([3]; cells expressing GluN1-A714L): significantly increased
effect on amplitude of the NMDAR-EPSC ([3]; cells expressing GluN1-WT): significant decrease

C[C@H](Oc1ccc(S(C)(=O)=O)cc1C(=O)N1CCN(c2ncc(C(F)(F)F)cc2F)CC1)C(F)(F)F [Bitopertin]
tolerability at high dose [4]: relatively well tolerated

B1: GO: an enzyme that catalyzes the breakdown of glycine; His-tagged, from Bacillus subtilis, expressed in E. coli (protein, UniProt O31616 1-369, looked up)
Glycine oxidase: MKRHYEAVVIGGGIIGSAIAYYLAKENKNTALFESGTMGGRTTSAAAGMLGAHAECEERDAFFDFAMHSQRLYKGLGEELYALSGVDIRQHNGGMFKLAFSEEDVLQLRQMDDLDSVSWYSKEEVLEKEPYASGDIFGASFIQDDVHVEPYFVCKAYVKAAKMLGAEIFEHTPVLHVERDGEALFIKTPSGDVWANHVVVASGVWSGMFFKQLGLNNAFLPVKGECLSVWNDDIPLTKTLYHDHCYIVPRKSGRLVVGATMKPGDWSETPDLGGLESVMKKAKTMLPAIQNMKVDRFWAGLRPGTKDGKPYIGRHPEDSRILFAAGHFRNGILLAPATGALISDLIMNKEVNQDWLHAFRIDRKEAVQI
modifications: His tag
notes: an enzyme that catalyzes the breakdown of glycine; His-tagged, from Bacillus subtilis, expressed in E. coli
effect on the decrease of the NMDAR-EPSC amplitude following OGD (NMDAR [5]): abolished
